Assay [1] has as its target T1, β-1,4-Galactosyltransferase 7 (β4GalT7) (Homo sapiens, UniProt Q9UBV7).
T1 construct: gene B4GALT7
T1 sequence (Q9UBV7 81-327): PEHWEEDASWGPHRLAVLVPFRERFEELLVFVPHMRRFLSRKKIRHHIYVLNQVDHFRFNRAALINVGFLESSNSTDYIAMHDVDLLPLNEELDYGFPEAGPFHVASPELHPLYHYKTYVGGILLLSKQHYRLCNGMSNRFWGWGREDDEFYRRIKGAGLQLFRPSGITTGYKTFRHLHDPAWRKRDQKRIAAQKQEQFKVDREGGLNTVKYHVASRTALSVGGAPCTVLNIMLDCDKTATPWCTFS
Kind of assay: HPLC assay of GalXylNap formation from XylNap and UDP-Gal. It counts as biochemical. From the text:
HPLC assay of GalXylNap formation from XylNap and UDP-Gal on β-1,4-Galactosyltransferase 7 (β4GalT7) | display concentration-dependent inhibition of β4GalT7.

For assay [2], the target named is T1, β-1,4-Galactosyltransferase 7 (β4GalT7). Kind of assay: STD NMR. The format is binding.

By IC50 is commonly meant the concentration that gives 50% inhibition.

In assay [1], `O=P(O)(O)CP(=O)(O)OCCO[C@@H]1COC(O)[C@H](O)[C@H]1O` (mixture of isomers) [compound 4, 4-O-(2-(Methylene-diphosphoryl)-hydroxyethyl)-α/β-D-xylopyranose] displayed an IC50 of 188 µM.
As to `CC(=O)N[C@H]1[C@@H](OP(=O)(O)OP(=O)(O)OC[C@H]2O[C@@H](n3ccc(=O)[nH]c3=O)[C@H](O)[C@@H]2O)O[C@H](CO)[C@H](O)[C@@H]1O` [UDP-GalNAc], the “STD NMR” value in assay [2] is “β4GalT7 tolerates an N-acetyl group at C2 of the sugar residue”.
